Data: patent publication US20140323420A1, “REDUCING TRANSMISSION OF SEXUALLY TRANSMITTED INFECTIONS” (University of Rochester, priority 2011, published 2014)
Entries after “also recorded” stand apart in the source; their conditions may differ. Like-named read-outs stand apart in the source and are kept apart here.

Tests used:
[1] = tested on: HIV-IIIB; assay: Screening hits: SEVI-mediated enhancement of HIV-IIIB infection, CEM-M7 cells; type: cell-based, HIV-1; settings: 50 μM, 15 μg/mL SEVI, 48 hours
Protocol: Each of the selected compound shown below was incubated at 50 μM with 15 μg/mL of SEVI for 10 minutes. HIV-IIIB was then added and incubated for an additional 10 minutes prior to being added to CEM-M7 cells. After two hours the inoculum was removed and the cells washed with PBS. The cells were incubated for an additional 48 hours and then HIV infection was assessed by luciferase activity. Luciferase activity is graphed for each of the selected compounds in FIG. 29.
A high throughput assay was established to identify SEVI-binding compounds.

[2] = target: T1, SEVI fibrils (Homo sapiens, UniProt P15309); assay: Flow cytometry: binding of SEVI-biotin fibrils to the Jurkat cell surface; type: cell-based; settings: 1 h; for MFI (mean fluorescent intensity): Jurkat cells + SEVI-biotin
T1 construct: PAP248-286 peptide was synthesized by New England Peptide; purchased New England Peptide (Gardner, Mass.); host or cells: chemical synthesis
T1 sequence (P15309 248-286 limits assumed): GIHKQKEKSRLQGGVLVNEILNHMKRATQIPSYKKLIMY
Protocol: Cells were incubated for 1 h at 37° C., washed, and stained for 1 h with a covalent conjugate of streptavidin and fluorescein isothiocyanate (SA-FITC). Cells were washed and run on an Accuri C6 Flow Cytometer (Accuri Cytometers, Ann Arbor, Mich.). Data were analyzed using FlowJo (TreeStar Inc, Ashland, Oreg.).
After that time, fibrillar structures were examined by ThT fluorescence. ThT changes in fluorescence intensity when intercalated into the β-sheet structure common to amyloid fibrils; therefore, ThT fluorescence serves as a surrogate measure for fibrillar structure of SEVI and for the stability of SEVI fibrils. […] Binding of the fibrils to the cell surface was detected using SA-FITC. […] Surface-bound fibrils were detected with SA-FITC and measured by flow cytometry. Results are shown as percentage of cells with bound fibrils (SA-FITC+) as well as mean fluorescent intensity (MFI).

[3] = target: T2, aggregated Alzheimer disease-related Aβ(1-42) peptides (Homo sapiens, UniProt P05067); assay: Fluorescence binding assay of BTA-EG6 to aggregated Aβ(1-42) peptides; settings: same fluorescence binding assay
T2 construct: aggregated Alzheimer disease-related Aβ(1-42) peptides
T2 sequence (P05067 672-713 limits assumed): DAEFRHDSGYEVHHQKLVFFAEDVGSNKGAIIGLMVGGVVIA
Excerpt: Error bars represent standard deviations from the mean.

[4] = target: T1, SEVI fibrils; assay: Fluorescence polarization: displacement of FITC-heparin from SEVI fibrils; type: binding; settings: SEVI + 16 μg/ml FITC-heparin, 1 h room temperature
Protocol: Samples were incubated 1 h at room temperature and read on a PerkinElmer Life Sciences Envision 2012 multilabel reader (PerkinElmer, Waltham, Mass.) at an excitation λ=480 nm and emission λ=535 nm. The horizontal and vertical polarized fluorescence intensities were recorded, and the calculated polarization was determined in millipolarization units.
Samples were incubated for 1 hour at room temperature and polarized fluorescence was measured.

[5] = target: T1, SEVI fibrils; assay: ThT fluorescence stability of preformed SEVI fibrils; settings: 3 h incubation
Excerpt: After that time, fibrillar structures were examined by ThT fluorescence. ThT changes in fluorescence intensity when intercalated into the β-sheet structure common to amyloid fibrils; therefore, ThT fluorescence serves as a surrogate measure for fibrillar structure of SEVI and for the stability of SEVI fibrils.

[6] = tested on: HIV-1IIIB; assay: SEVI-mediated enhancement of HIV-1 IIIB infection, CEM-M7 (CEM 5.25) cells, luciferase; type: cell-based; settings: for Inhibition of SEVI-mediated enhancement of HIV-1 infection (luciferase): CEM cells, with SEVI fibrils, increasing concentrations
Protocol: After 2 h, the medium […] were replaced.

[7] = tested on: HIV-1ADA; assay: SEVI-mediated enhancement of HIV-1 ADA infection, CEM-M7 cells, luciferase; type: cell-based
Protocol: Treated virions were then added to 5×10^4 CEM-M7 cells/well in 96-well flat-bottomed tissue culture plates. After 2 h, the medium axis were replaced. Infection was assayed after 48 h by quantifying luciferase expression using the Promega Dual-Luciferase assay and a Beckman Coulter DTX880 plate reader.

[8] = tested on: HIV-1BaL; assay: SEVI-mediated enhancement of HIV-1 BaL infection of PBMCs, p24; type: cell-based
Protocol: Cells were washed at 3 h, and infection was analyzed at day 4 using the HIV-1 p24 antigen capture assay (Advanced Bioscience Laboratory).

[9] = tested on: HIV-1IIIB; assay: Semen-mediated enhancement of HIV-1 IIIB infection, CEM cells; type: cell-based; settings: HIV-1 IIIB preincubated with 50% semen, diluted 15 fold onto CEM cells
Protocol: (§1) After 10 minutes, the stocks were diluted 15 fold and incubated with CEM 5.25 cells.

[10] = tested on: HIV-1ADA; assay: Semen-mediated enhancement of HIV-1 ADA infection, CEM-M7 cells; type: cell-based
Protocol: After 15 min, the semen and virus mixture was diluted 1:15 into 5×10^4 CEM-M7 cells/well in a 96-well plate. Cells were washed after 1 h, and infection was assayed at 48 h as above.
As human semen has been reported to be toxic to cultured cells, a protocol that minimized this toxicity was used. Pooled human semen was added to HIV-1IIIB virus in a 1:1 dilution. After 15 min, this solution was added to cells at a 1:15 dilution for a final concentration of 3.3%.

[11] = tested on: SiHa cells; assay: Semen-mediated chemokine release from SiHa cells (ELISA); type: cell-based; settings: pooled human semen, 33 μg/ml BTA-EG6, 6 h
Protocol: (§2) Supernatant was collected at 6 and 24 h, and the production of the chemokines IL-8 and Mip-3α was measured by ELISA (R&D Systems). […] After 6 h, supernatants were collected, and the production of the chemokines IL-8 and Mip-3α was measured by ELISA (R&D systems, Minneapolis, Minn.).
After 6 h, supernatants were collected and analyzed for production of IL-8 or MIP-3α.

[12] = tested on: HIV-1 IIIB; assay: Virus binding assay (p24), HIV-1 IIIB virions; type: cell-based; settings: Jurkat cells; for Inhibition of SEVI-enhanced binding of HIV-1 virions to the cell surface (p24 ELISA): with SEVI, 90 min
Protocol: as §1

[13] = tested on: HIV-1ADA; assay: Virus binding assay (p24), HIV-1 ADA virions; type: cell-based; settings: A2En endocervical cells, with SEVI
Protocol: After 90 min, cells were washed to remove any unbound virus, and bound virions were detected using an HIV-1 p24 antigen capture assay (Advanced Bioscience Laboratory).
Surface-bound virions were then measured by p24 ELISA after washing off unbound virus. […] Additionally, this experiment was performed using A2En cells, a primary cell-derived endocervical cell line.

[14] = tested on: A2En cells; assay: HIV-1 BaL + SEVI chemokine release from A2En cells (ELISA); type: cell-based, human; settings: HIV-1BAL virions + SEVI
Protocol: as §2

[15] = tested on: cervical epithelial cell lines SiHa, A2En, 3EC1; type: cell-based, human
Excerpt: For a compound to be a legitimate HIV-1 microbicide candidate, it must not have toxic or inflammatory effects on the cervical […]. Loss of this protective layer leads to an increased ability for HIV-1 to cross the mucosal barrier, and inflammatory effects drive recruitment of HIV-1 target cells, further decreasing the natural barriers against successful transmission of HIV. […] To do this, the following cell lines were used: 1) SiHa cells, a cervical carcinoma cell line; 2) A2En cells, a primary cell-derived line from the endocervical […]; and 3) 3EC1 cells, a primary cell-derived line from the ectocervical […]. […] Viability was assessed at 24 h by using the resazurin cytotoxicity assay. Resazurin cytotoxicity data were confirmed by trypan blue counts of viable cells.

[16] = tested on: cervical epithelial cell lines SiHa, A2En, 3EC1; type: cell-based, human; remark: listed apart in the source
Protocol: Cytokine and chemokine production was assessed at 12 h by ELISA (R&D systems). Cells were also treated with 0.1% nonoxynol-9 as a positive control for cytotoxicity and with 0.1 μg/ml FSL1, a synthetic diacylated lipoprotein derived from Mycoplasma salivarium (InvivoGen, San Diego, Calif.), as a positive control for chemokine production.
Nonoxynol-9 (non-9), a spermicide, was used as a positive control. […] Cell culture supernatants were then assessed for the presence of the inflammatory cytokines and chemokines Mip-3α (FIG. 5B), IL-8 (FIG. 16C), IL-1β, and TNF-α.

[17] = tested on: HIV-1IIIB; settings: previously reported value for BTA-EG6; cited from earlier work
[18] = target: T1, SEVI fibrils; assay: Example 3: fluorescence assay, Kd of monomer and oligomers 1-5 to SEVI fibrils; type: binding; settings: Example 3, Table 2, estimated
Protocol: To test whether binding affinity/avidity is reduced in oligomeric forms, the binding of monomeric and oligomeric forms was assayed to determine the affinity/avidity constants (Kd) for the binding of monomer and oligomers 1-5 to amyloid fibrils formed from SEVI peptides.

[19] = target: T1, SEVI fibrils; assay: Example 4: centrifugation fluorescence binding assay of 1-5 to SEVI fibrils; settings: Table 3, 5% DMSO/PBS
Excerpt: Each experiment was repeated at least 3 times. Error bars represent standard deviations from the mean.
When the Kd values of compounds 1-5 to SEVI fibrils was examined, a similar trend for improved binding of the oligomeric BTA compounds was observed (Table 3). The greatest improvement in binding as a function of increasing valence number in the oligomer was observed when comparing the monomer to dimer and the tetramer to pentamer.

[20] = target: T3, Aβ(1-42) fibrils (Homo sapiens, UniProt P05067); assay: Example 4: centrifugation fluorescence binding assay of 1-5 to Aβ(1-42) fibrils
T3 construct: Aβ(1-42) peptide was purchased from GL Biochem (Shanghai, China) Ltd; purchased GL Biochem (Shanghai, China) Ltd; host or cells: synthetic peptide; fibrils grown in PBS at 37 °C for 24 h
T3 sequence (P05067 672-713 limits assumed): as above
Protocol: The binding of BTA monomer oligomer to amyloid fibrils was measured according to the centrifugation assay described by Levine for BTA-1 to Aβ fibrils (Levine et al., Amyloid 12:5-14 (2005)). […] These incubations were performed in duplicate runs and allowed to equilibrate for 12 hours at room temperature. After equilibration, each solution was centrifuged at 16,000 g for 20 minutes at 4° C. The supernatants were separated from the pelleted fibrils, and 220 μL of fresh 5% DMSO/PBS was added to re-suspend the pellets. 100 μl aliquots of each re-suspended pellet was pipetted into a cuvette (ultramicrocuvette, 10-mm light path, Hellma®, Müllheim, Germany), and the fluorescence of the bound molecule was determined at 355 nm excitation and 420 nm emission using a spectrofluorometer (Photon Technology International, Inc., Birmingham, N.J.). Each experiment was repeated at least 3 times. Error bars represent standard deviations from the mean. […] The data were processed using Origin 7.0 (MicroCal Software, Inc., Northampton, Mass.).

[21] = heparin (100 μg/ml) positive control
[22] = Table 3, 5% DMSO/PBS, read-out: Kd (nM) to Aβ(1-42) fibrils

COc1ccc2cc3[n+](cc2c1OC)CCc1cc2c(cc1-3)OCO2 [Compound 11A5]
Inhibition of SEVI-mediated enhancement of HIV infection (luciferase) [1]: inhibited SEVI-mediated enhancement of HIV infection

Cc1ccc2nc(-c3ccc(NCCOCCOCCOCCOCCOCCO)cc3)sc2c1 [BTA-EG6]
SA-FITC+ (%), percentage of cells with bound fibrils ([2]; BTA-EG6 high (27 μg/ml)): 21.2%
SA-FITC+ (%), percentage of cells with bound fibrils ([2]; BTA-EG6 low (5.5 μg/ml)): 36.6%
MFI (mean fluorescent intensity) ([2]; BTA-EG6 high (27 μg/ml)): 38.7
MFI (mean fluorescent intensity) ([2]; BTA-EG6 low (5.5 μg/ml)): 95.3
Kd [3]: 111 ± 32 nM
Binding to SEVI fibrils, displacement of FITC-heparin (decrease of polarization) [4]: capable of binding SEVI; also recorded: able to displace fluorescent heparin from the SEVI fibrils in a dose-dependent fashion
Effect on stability of preformed SEVI fibrils (ThT fluorescence) [5]: no effect on fibrillar stability
Inhibition of SEVI-mediated enhancement of HIV-1 infection (luciferase) [6]: decreasing levels of luciferase activity; also recorded: reducing infectivity nearly back to baseline levels
Effect on infectivity of HIV alone ([6]; CEM-M7, absence of SEVI): no effect on the infectivity of HIV virus alone
Inhibition of SEVI-mediated enhancement of HIV-1 infection (luciferase) ([7]; CEM-M7, 15 μg/ml SEVI): significant dose-dependent inhibition
Effect on infectivity of HIV alone ([7]; CEM-M7, absence of SEVI): No effect on the infectivity of HIV-1ADA was observed
Inhibition of SEVI-mediated enhancement of HIV-1 infection (p24) ([8]; HIV-1BAL, 15 μg/ml SEVI): able to inhibit SEVI-mediated enhancement of HIV-1 infection in PBMCs
Effect on infectivity of HIV alone ([8]; HIV-1BaL, absence of SEVI): no effect on the infectivity of HIV-1BaL
Inhibition of semen-mediated enhancement of HIV infection (luciferase) [9]: capable of inhibiting semen mediated enhancement of HIV infection; also recorded: efficiently inhibited the semen mediated enhancement of HIV-1 infection
Inhibition of semen-mediated enhancement of HIV infection (luciferase) [10]: this effect extended to infection with an R5 virus
Effect on semen-stimulated IL-8 and MIP-3α production [11]: no inhibitory effect on semen-stimulated chemokine production
Effect on binding of HIV virions to the cell surface ([12]; absence of SEVI): no effect on the binding of HIV virions to the cell surface
Inhibition of SEVI-enhanced binding of HIV-1 virions to the cell surface (p24 ELISA) [12]: decrease in HIV-1 binding to the cells
Inhibition of SEVI-enhanced binding of HIV-1 virions to the cell surface (p24 ELISA) ([12]; listed as BTAEG6): efficiently abrogated
Inhibition of SEVI-enhanced binding of HIV-1 virions to the cell surface (p24 ELISA) [13]: this effect was inhibited
Inhibition of SEVI-increased IL-8 release [14]: able to inhibit this release
Cell viability (Alamar Blue) [15]: did not affect the cell viability
Cell viability (resazurin cytotoxicity assay) [15]: did not have any effects on cell viability
Cytokine production (IL-1b, MIP-3a, TNF-a) by ELISA [16]: do not induce cytokine production
Concentration required to completely neutralize the effects of SEVI on HIV-1 infection [17]: 44 µM

heparin [reference compound]
SA-FITC+ (%), percentage of cells with bound fibrils [2, 21]: 31.7%
MFI (mean fluorescent intensity) [2, 21]: 376
Binding to SEVI fibrils, displacement of FITC-heparin (decrease of polarization) [4]: the polarization decreased

CCNC(=O)CCOCCOCCOCCOCCNC(=O)CCNc1ccc(-c2nc3ccc(C)cc3s2)cc1 [Compound 1, BTA Monomer]
Kd [18]: 107 ± 16 nM
Kd [19]: 236 ± 90 nM
Kd [20, 22]: 235 ± 75 nM

Cc1ccc2nc(-c3ccc(NCCC(=O)NCCOCCOCCOCCOCCC(=O)NCCNC(=O)CCOCCOCCOCCOCCNC(=O)CCNc4ccc(-c5nc6ccc(C)cc6s5)cc4)cc3)sc2c1 [Compound 2, BTA Dimer]
Kd [18]: 75 ± 10 nM
Kd [19]: 69 ± 1 nM
Fold lower Kd than monomer 1, Aβ(1-42) fibrils [20]: 8 fold
Kd [20]: 29 ± 4 nM

Cc1ccc2nc(-c3ccc(NCCC(=O)NCCOCCOCCOCCOCCC(=O)NCCN(CCNC(=O)CCOCCOCCOCCOCCNC(=O)CCNc4ccc(-c5nc6ccc(C)cc6s5)cc4)CCNC(=O)CCOCCOCCOCCOCCNC(=O)CCNc4ccc(-c5nc6ccc(C)cc6s5)cc4)cc3)sc2c1 [Compound 3, BTA Trimer]
Kd [18]: 40 ± 6 nM
Kd [19]: 40 ± 6 nM
Kd [20, 22]: 26 ± 6 nM

Cc1ccc2nc(-c3ccc(NCCOCCOCCOCCO)cc3)sc2c1 [BTA-EG4]
Binding to SEVI fibrils, displacement of FITC-heparin (decrease of polarization) [4]: capable of binding SEVI
Inhibition of SEVI-mediated enhancement of HIV-1 infection (luciferase) [6]: decreasing levels of luciferase activity
Inhibition of semen-mediated enhancement of HIV infection (luciferase) [9]: capable of inhibiting semen mediated enhancement of HIV infection
Inhibition of SEVI-enhanced binding of HIV-1 virions to the cell surface (p24 ELISA) [12]: decrease in HIV-1 binding to the cells
Cell viability (Alamar Blue) [15]: did not affect the cell viability
Cytokine production (IL-1b, MIP-3a, TNF-a) by ELISA [16]: do not induce cytokine production

COc1ccc(Cl)cc1-c1ccc(-c2c(C#N)c(N)n3c(nc4ccccc43)c2C#N)o1 [Compound 8E2]
Inhibition of SEVI-mediated enhancement of HIV infection (luciferase) [1]: inhibited SEVI-mediated enhancement of HIV infection

CCNC(=O)C(CCCCNC(=O)CCOCCOCCOCCOCCNC(=O)CCNc1ccc(-c2nc3ccc(C)cc3s2)cc1)NC(=O)C(CCCCNC(=O)CCOCCOCCOCCOCCNC(=O)CCNc1ccc(-c2nc3ccc(C)cc3s2)cc1)NC(=O)C(CCCCNC(=O)CCOCCOCCOCCOCCNC(=O)CCNc1ccc(-c2nc3ccc(C)cc3s2)cc1)NC(=O)CCOCCOCCOCCOCCNC(=O)CCNc1ccc(-c2nc3ccc(C)cc3s2)cc1 (stereo not shown) [Compound 4, BTA Tetramer]
Kd [18]: 56 ± 6 nM
Kd [19]: 59 ± 6 nM
Kd [20, 22]: 20 ± 5 nM
